One assay has as its target T1, BRD4 (BD1) (Homo sapiens, UniProt O60885).
T1 construct: with relatively long constructs also being possible, preferably amino acids 44-168; made in house; host or cells: E. coli
The experiment in a line: Binding assay BRD4/acetylated peptide H4 (TR-FRET protein-protein interaction assay). A digest of the protocol: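 Displacement of biotin-Ac-H4 peptide from His6-tagged BRD4(BD1), final usually 10 nM, read as Eu-streptavidin to anti-His-XL665 TR-FRET (665/620 nm). Compounds tested at 11 doses up to 20 μM in duplicate, pH 7.5 HEPES, 22 °C then 4 °C incubation; IC50 by 4-parameter regression.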
Background: TR-FRET usually uses a lanthanide donor and a delayed reading to cut background.

Another assay deals with MOLM-13 cells. The experiment in a line: Cell proliferation assay (alamarBlue), MOLM-13. The class given is cell-based. The following applies: Homo sapiens, 96 hours incubation, inhibition of cell proliferation. In short, it runs like this: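 IC50 = concentration giving 50% growth inhibition relative to buffer-treated cells, after subtracting baseline fluorescence taken before dosing. Compound applied at 1E-5 to 1E-8 M for 96 h at 37 °C in RPMI1640 with 10% FCS; alamarBlue signal at 530/590 nm.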

SMILES strings stand for the structures.

With `CNC(=O)N1N=C(c2ccc(-c3cccc(OC)c3)cc2)c2cc(OC)c(OC)cc2CC1C` (racemic) [Example 87, (±)-7,8-dimethoxy-1-(3′-methoxybiphenyl-4-yl)-N,4-dimethyl-4,5-dihydro-3H-2,3-benzodiazepine-3-carboxamide], the results for the IC50 on BRD4 (BD1) and in the assay with MOLM-13 cells were 110 nM and 560 nM, respectively.
Consider `CNC(=O)N1N=C(c2ccc(-c3ccc(-c4ccc(Cl)s4)cc3)cc2)c2cc(OC)c(OC)cc2CC1C` (racemic) [Example 88, (±)-1-[4′-(5-chlorothien-2-yl)biphenyl-4-yl]-7,8-dimethoxy-N,4-dimethyl-4,5-dihydro-3H-2,3-benzodiazepine-3-carboxamide], for which the concentration for half-maximal inhibition (IC50) (usually the concentration at which inhibition is half-maximal) is 290 nM on BRD4 (BD1) and 670 nM with MOLM-13 cells.
Take `CNC(=O)N1N=C(c2ccc(-c3cccc(F)c3)cc2)c2cc(OC)c(OC)cc2CC1C` (racemic) [Example 89, (±)-1-(3′-fluorobiphenyl-4-yl)-7,8-dimethoxy-N,4-dimethyl-4,5-dihydro-3H-2,3-benzodiazepine-3-carboxamide]: the IC50 at BRD4 (BD1) came out at 140 nM; in the assay with MOLM-13 cells, 380 nM.
For `CNC(=O)N1N=C(c2ccc(-c3ccccc3OC)cc2)c2cc(OC)c(OC)cc2CC1C` (racemic) [Example 90, (±)-7,8-dimethoxy-1-(2′-methoxybiphenyl-4-yl)-N,4-40dimethyl-4,5-dihydro-3H-2,3-benzodiazepine-3-carboxamide], the IC50 worked out at 70 nM at BRD4 (BD1) and 460 nM with MOLM-13 cells.
On to `CNC(=O)N1N=C(c2ccc(-c3ccccc3C(F)(F)F)cc2)c2cc(OC)c(OC)cc2CC1C` (racemic) [Example 91, (±)-7,8-dimethoxy-N,4-dimethyl-1-[2′-(trifluoromethyl)biphenyl-4-yl]-4,5-dihydro-3H-2,3-benzodiazepine-3-carboxamide], for which the values for the IC50 at BRD4 (BD1) and in the assay with MOLM-13 cells were 340 nM and 550 nM, respectively.
`CNC(=O)N1N=C(c2ccc(-c3ccccc3Cl)cc2)c2cc(OC)c(OC)cc2CC1C` (racemic) [Example 92, (±)-1-(2′-chlorobiphenyl-4-yl)-7,8-dimethoxy-N,4-dimethyl-4,5-dihydro-3H-2,3-benzodiazepine-3-carboxamide]: the values for the half-maximal inhibitory concentration (IC50) on BRD4 (BD1) and in the assay on MOLM-13 cells were 180 nM and 850 nM, respectively.
Taken in the same sequence, the figures for `CNC(=O)N1N=C(c2ccc(-c3ccccc3F)cc2)c2cc(OC)c(OC)cc2CC1C` (racemic) [Example 93, (±)-1-(2′-fluorobiphenyl-4-yl)-7,8-dimethoxy-N,4-dimethyl-4,5-dihydro-3H-2,3-benzodiazepine-3-carboxamide] were 120 nM and 460 nM.
Turning to `CNC(=O)N1N=C(c2ccc(-c3ccc(CO)cc3)cc2)c2cc(OC)c(OC)cc2CC1C` (racemic) [Example 94, (±)-1-[4′-(hydroxymethyl)biphenyl-4-yl]-7,8-dimethoxy-N,4-dimethyl-4,5-dihydro-3H-2,3-benzodiazepine-3-carboxamide], the half-inhibitory concentration (IC50) on BRD4 (BD1) amounted to 40 nM; with MOLM-13 cells, 380 nM.
On to `CNC(=O)N1N=C(c2ccc(-c3ccc(OC(F)(F)F)cc3)cc2)c2cc(OC)c(OC)cc2CC1C` (racemic) [Example 95, (±)-7,8-dimethoxy-N,4-dimethyl-1-[4′-(trifluoromethoxy)biphenyl-4-yl]-4,5-dihydro-3H-2,3-benzodiazepine-3-carboxamide], for which the results for the IC50 at BRD4 (BD1) and in the assay with MOLM-13 cells were 630 nM and 2760 nM, respectively.
For `CNC(=O)N1N=C(c2ccc(-c3cccc(C(=O)N4CCCCC4)c3)cc2)c2cc(OC)c(OC)cc2CC1C` (racemic) [Example 97, (±)-7,8-dimethoxy-N,4-dimethyl-1-[3′-(piperidin-1-ylcarbonyl)biphenyl-4-yl]-4,5-dihydro-3H-2,3-benzodiazepine-3-carboxamide], in that order: 50 nM and 450 nM.
Consider `CNC(=O)N1N=C(c2ccc(-c3cccc(C(=O)N4CCOCC4)c3)cc2)c2cc(OC)c(OC)cc2CC1C` (racemic) [Example 98, (±)-7,8-dimethoxy-N,4-dimethyl-1-[3′-(morpholin-4-ylcarbonyl)biphenyl-4-yl]-4,5-dihydro-3H-2,3-benzodiazepine-3-carboxamide], for which the IC50 turned out to be 30 nM at BRD4 (BD1) and 270 nM with MOLM-13 cells.
Take `CNC(=O)N1N=C(c2ccc(-c3cccc(C(=O)NC4CC4)c3)cc2)c2cc(OC)c(OC)cc2CC1C` (racemic) [Example 99, (±)-1-[3′-(cyclopropylcarbamoyl)-biphenyl-4-yl]-7,8-dimethoxy-N,4-dimethyl-4,5-dihydro-3H-2,3-benzodiazepine-3-carboxamide]: the values for the IC50 at BRD4 (BD1) and with MOLM-13 cells were 30 nM and 270 nM, respectively.
Taken in the same sequence, the figures for `CNC(=O)N1N=C(c2ccc(-c3ccnn3C)cc2)c2cc(OC)c(OC)cc2CC1C` (racemic) [Example 101, (±)-7,8-dimethoxy-N,4-dimethyl-1-[4-(1-methyl-1H-pyrazol-5-yl)phenyl]-4,5-dihydro-3H-2,3-benzodiazepine-3-carboxamide] were 60 nM and 650 nM.
On to `CNC(=O)N1N=C(c2ccc(-c3ccc([N+](=O)[O-])cc3)cc2)c2cc(OC)c(OC)cc2CC1C` (racemic) [Example 102, (±)-7,8-dimethoxy-N,4-dimethyl-1-(4′-nitrobiphenyl-4-yl)-4,5-dihydro-3H-2,3-benzodiazepine-3-carboxamide], for which the IC50 at BRD4 (BD1) was determined as 90 nM; in the assay with MOLM-13 cells it was 960 nM.
As for `CNC(=O)N1N=C(c2ccc(-c3cccnc3)cc2)c2cc(OC)c(OC)cc2CC1C` (racemic) [Example 103, (±)-7,8-dimethoxy-N,4-dimethyl-1-[4-(pyridin-3-yl)phenyl]-4,5-dihydro-3H-2,3-benzodiazepine-3-carboxamide], the IC50 at BRD4 (BD1) came to 40 nM; in the assay with MOLM-13 cells it was 350 nM.
Take `CNC(=O)N1N=C(c2ccc(-c3cnccc3OC)cc2)c2cc(OC)c(OC)cc2CC1C` (racemic) [Example 104, (±)-7,8-dimethoxy-1-[4-(4-methoxypyridin-3-yl)phenyl]-N,4-dimethyl-4,5-dihydro-3H-2,3-benzodiazepine-3-carboxamide]: the IC50 stood at 30 nM at BRD4 (BD1) and 260 nM in the assay on MOLM-13 cells.
As for `CNC(=O)N1N=C(c2ccc(-c3cccc(C#N)c3)cc2)c2cc(OC)c(OC)cc2CC1C` (racemic) [Example 105, (±)-1-(3′-cyanobiphenyl-4-yl)-7,8-dimethoxy-N,4-dimethyl-4,5-dihydro-3H-2,3-benzodiazepine-3-carboxamide], the values for the IC50 at BRD4 (BD1) and in the assay with MOLM-13 cells were 80 nM and 670 nM, respectively.
Consider `CNC(=O)N1N=C(c2ccc(-c3ccc(C#N)cc3)cc2)c2cc(OC)c(OC)cc2CC1C` (racemic) [Example 106, (±)-1-(4′-cyanobiphenyl-4-yl)-7,8-dimethoxy-N,4-dimethyl-4,5-dihydro-3H-2,3-benzodiazepine-3-carboxamide], for which the results for the IC50 on BRD4 (BD1) and in the assay with MOLM-13 cells were 90 nM and 2550 nM, respectively.
As for `CNC(=O)N1N=C(c2ccc(-c3ccccc3OC(F)(F)F)cc2)c2cc(OC)c(OC)cc2CC1C` (racemic) [Example 107, (±)-7,8-dimethoxy-N,4-dimethyl-1-[2′-(trifluoromethoxy)biphenyl-4-yl]-4,5-dihydro-3H-2,3-benzodiazepine-3-carboxamide], the IC50 on BRD4 (BD1) stood at 260 nM; in the assay on MOLM-13 cells, 630 nM.

Values taken from US9890147B2 (BAYER PHARMA AKTIENGESELLSCHAFT, priority 2012, dated 2018).
